Conditions: in water

O=C1NC(=O)c2cc([N+](=O)[O-])ccc21
Conditions | solubility (mole fraction)
278.15 K | 0.000105
283.15 K | 0.000142
288.15 K | 0.000187
293.15 K | 0.000248
298.15 K | 0.000324
303.15 K | 0.000415
308.15 K | 0.000537
313.15 K | 0.000684
318.15 K | 0.00086
323.15 K | 0.00109

Source: BigSolDB 2.1
